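Following 48 hours of exposure in 96-well plates, responses at five concentrations were used to interpolate endpoints linearly. Abbreviation: GI50, concentration required for 50% inhibition of growth.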 The source made the active and inactive calls. Rule as the data show it: active = GI50 up to about 1.1 µM and inactive = higher.
How the values were obtained:
Assay in all cases: DTP human tumour cell line panel, 48 h
[1] = test system: RXF 393
[2] = test system: MDA-N
[3] = test system: HCC 2998
[4] = test system: SNB-75
[5] = test system: SF-295
[6] = test system: A498
[7] = test system: SK-MEL-28
[8] = test system: HOP-92
[9] = test system: A549
[10] = test system: MOLT-4
[11] = test system: SK-MEL-2
[12] = test system: LOX IMVI
[13] = test system: SK-OV-3
[14] = test system: Malme-3M
[15] = test system: SF-268
[16] = test system: T47D
[17] = test system: U-251
[18] = test system: HOP-62
[19] = test system: NCI-H23
[20] = test system: COLO 205
[21] = test system: HCT-15
[22] = test system: MDA-MB-435
[23] = test system: BT-549
[24] = test system: UACC-62
[25] = test system: ACHN
[26] = test system: SN12C
[27] = test system: OVCAR-5
[28] = test system: 786-0
[29] = test system: SR
[30] = test system: NCI-H460
[31] = test system: TK-10
[32] = test system: K562
[33] = test system: NCI/ADR-RES
[34] = test system: SK-MEL-5
[35] = test system: MDA-MB-231
[36] = test system: CAKI-1
[37] = test system: DU-145
[38] = test system: HCT-116
[39] = test system: HT-29
[40] = test system: NCI-H226
[41] = test system: KM12
[42] = test system: UACC-257
[43] = test system: HL-60
[44] = test system: CCRF-CEM
[45] = test system: SW-620
[46] = test system: SF-539
[47] = test system: OVCAR-3
[48] = test system: Hs-578T
[49] = test system: PC-3
[50] = test system: RPMI-8226
[51] = test system: MCF7
[52] = test system: UO-31
[53] = test system: OVCAR-4
[54] = test system: NCI-H522
[55] = test system: EKVX
[56] = test system: IGROV-1
[57] = test system: OVCAR-8

For `O=c1ccn(CC2(CO)CCC2)c(=O)[nH]1`, which GI50 [1] is on record?
Its GI50 is > 100 µM (inactive).

And the GI50 [2]?
Its GI50 is > 100 µM (inactive).

And the GI50 [3]?
Its GI50 is > 100 µM (inactive).

And the GI50 [4]?
The GI50 was > 100 µM (inactive).

And the GI50 [5]?
Its GI50 is > 100 µM (inactive).

And the GI50 [6]?
Its GI50 is > 100 µM (inactive).

And the GI50 [7]?
The GI50 was > 100 µM (inactive).

And the GI50 [8]?
Its GI50 is > 100 µM (inactive).

And the GI50 [9]?
Its GI50 is > 100 µM (inactive).

And the GI50 [10]?
Its GI50 is > 100 µM (inactive).

What about the GI50 [11] of the same molecule?
The GI50 was > 100 µM (inactive).

And the GI50 [12]?
The GI50 was > 100 µM (inactive).

And the GI50 [13]?
Its GI50 is > 100 µM (inactive).

What about the GI50 [14] of the same molecule?
The GI50 was > 100 µM (inactive).

What about the GI50 [15] of the same molecule?
The GI50 was > 100 µM (inactive).

And the GI50 [16]?
Its GI50 is > 100 µM (inactive).

And the GI50 [17]?
Its GI50 is > 100 µM (inactive).

And the GI50 [18]?
Its GI50 is > 100 µM (inactive).

And the GI50 [19]?
The GI50 was > 100 µM (inactive).

What about the GI50 [20] of the same molecule?
Its GI50 is > 100 µM (inactive).

And the GI50 [21]?
The GI50 was greater than 100 µM.

And the GI50 [22]?
The GI50 was > 100 µM (inactive).

What about the GI50 [23] of the same molecule?
The GI50 was > 100 µM (inactive).

What about the GI50 [24] of the same molecule?
Its GI50 is > 100 µM (inactive).

What about the GI50 [25] of the same molecule?
Its GI50 is > 100 µM (inactive).

And the GI50 [26]?
Its GI50 is > 100 µM (inactive).

What about the GI50 [27] of the same molecule?
Its GI50 is > 100 µM (inactive).

And the GI50 [28]?
The GI50 was > 100 µM (inactive).

What about the GI50 [29] of the same molecule?
The GI50 was > 100 µM (inactive).

What about the GI50 [30] of the same molecule?
The GI50 was > 100 µM (inactive).

And the GI50 [31]?
The GI50 was > 100 µM (inactive).

And the GI50 [32]?
Its GI50 is > 100 µM (inactive).

And the GI50 [33]?
Its GI50 is > 100 µM (inactive).

What about the GI50 [34] of the same molecule?
Its GI50 is > 100 µM (inactive).

What about the GI50 [35] of the same molecule?
Its GI50 is > 100 µM (inactive).

And the GI50 [36]?
The GI50 was > 100 µM (inactive).

And the GI50 [37]?
Its GI50 is > 100 µM (inactive).

And the GI50 [38]?
The GI50 was > 100 µM (inactive).

What about the GI50 [39] of the same molecule?
The GI50 was > 100 µM (inactive).

And the GI50 [40]?
The GI50 was > 100 µM (inactive).

And the GI50 [41]?
The GI50 was > 100 µM (inactive).

And the GI50 [42]?
The GI50 was > 100 µM (inactive).

And the GI50 [43]?
The GI50 was > 100 µM (inactive).

What about the GI50 [44] of the same molecule?
Its GI50 is > 100 µM (inactive).

And the GI50 [45]?
The GI50 was > 100 µM (inactive).

What about the GI50 [46] of the same molecule?
The GI50 was > 100 µM (inactive).

And the GI50 [47]?
The GI50 was > 100 µM (inactive).

What about the GI50 [48] of the same molecule?
The GI50 was > 100 µM (inactive).

What about the GI50 [49] of the same molecule?
Its GI50 is > 100 µM (inactive).

What about the GI50 [50] of the same molecule?
Its GI50 is > 100 µM (inactive).

What about the GI50 [51] of the same molecule?
The GI50 was > 100 µM (inactive).

What about the GI50 [52] of the same molecule?
The GI50 was > 100 µM (inactive).

What about the GI50 [53] of the same molecule?
Its GI50 is > 100 µM (inactive).

And the GI50 [54]?
Its GI50 is > 100 µM (inactive).

And the GI50 [55]?
Its GI50 is > 100 µM (inactive).

And the GI50 [56]?
The GI50 was > 100 µM (inactive).

And the GI50 [57]?
The GI50 was > 100 µM (inactive).

Source: ChEMBL document CHEMBL1201862, “PubChem BioAssay data set” (2004)
